Entries after “also recorded” stand apart in the source; their conditions may differ.
Key:
[1] = tested on: RgSBP (RUMGNA_02698, solute binding protein); assay: Fluorescence spectroscopy of ligand binding to RgSBP; set-up: species or system R. gnavus ATCC 29149; details: for change in fluorescence emission at 350 nm upon sequential additions of ligand: sequential additions of 10 μM ligand
Procedure: Ligand binding to RgSBP was investigated by measuring changes in the intrinsic protein fluorescence upon addition of 2,7-anhydro-Neu5Ac or Neu5Ac as potential ligands. (Andrew Bell with help from student in Gavin Thomas's Group,York). Due to the presence of […] in RgSBP, fluorescence changes were measured by exciting at 297 nm. Under these conditions the protein has a maximal emission at 331 nm. […] 2,7-Anhydro-Neu5Ac caused a 16% quench in the fluorescence of the protein at ligand saturation (FIG. 3A).
The binding of RgSBP to 2,7-anhydro-Neu5Ac or Neu5Ac was further investigated by measuring changes in fluorescence emission at 350 nm when RgSBP was excited at 297 nm upon sequential additions of 10 μM ligands.
All protein fluorescence experiments used a FluoroMax 3 fluorescence spectrometer with connecting water bath at 37° C. Because of the presence of 15 […] residues, the protein was excited at 297 nm with slit widths of 5 nm. […] Cumulative fluorescence changes from titration of the protein with ligand were plotted in GraphPad and fitted to a single rectangular hyperbola. The Kd values reported were averaged from three separate ligand titration experiments.
To determine the specificity of the predicted transporter, the gene encoding the predicted SBP was amplified by PCR from the R. gnavus ATCC 29149 genome, cloned into the pHISTEV expression vector, heterologously expressed in E. coli and the His6-tag recombinant protein purified by immobilised metal ion affinity chromatography (IMAC). Ligand binding to RgSBP was investigated by measuring changes in the intrinsic protein fluorescence upon addition of 2,7-anhydro-Neu5Ac or Neu5Ac as potential ligands. Due to the presence of 7 tryptophan residues in RgSBP, fluorescence changes were measured by exciting at 297 nm. Under these conditions the protein has a maximal emission at 331 nm. […] To confirm the novel specificity of 2,7-anhydro-Neu5Ac over Neu5Ac we followed sequential changes in fluorescence at 350 nm following additions of 10 μM of the two ligands. […] Conversely, when 2,7-anhydro-Neu5Ac is added first the quench is observed and additions of 10 μM Neu5Ac caused no further reduction or reverse in the intensity (FIG. 3d), indicating Neu5Ac is unable to displace 2,7-anhydro-Neu5Ac, further supporting the specificity of the interaction between RgSBP and 2,7-anhydro-Neu5Ac.

[2] = target: RgSBP (RUMGNA_02698, solute binding protein); assay: Isothermal titration calorimetry (ITC) of RgSBP binding; set-up: species or system R. gnavus ATCC 29149; details: 50 mM Tris-HCl pH 7.5; single-binding site model; triplicate
Procedure: Isothermal titration calorimetry (ITC) experiments were performed using the PEAQ-ITC system (Malvern, Malvern, UK) with a cell volume of 200 μl. Prior to titration, protein samples were exhaustively dialysed into 50 mM Tris-HCl pH 7.5. The ligand was dissolved in the dialysis buffer. The cell protein concentration was 100 μM and the syringe ligand concentration was 2 mM. Controls with titrant (sugar) injected into the buffer only were subtracted from the data. The analysis was performed using the Malvern software, using a single-binding site model. Experiments were carried out in triplicate.

[3] = tested on: R. gnavus ATCC 29149 wild-type; assay: Growth on sole carbon source, wild-type strain; type: cell-based; details: 11.1 mM in YCFA, anaerobic
Procedure: R. gnavus ATCC 29149 was routinely grown in an anaerobic cabinet (Don Whitley, Shipley, UK) in BHI-YH as previously described (Crost et al., 2013). Growth on single carbon sources utilized anaerobic basal YCFA medium (Duncan et al., 2002) supplemented with 11.1 mM of specific mono- or oligosaccharides (2,7-anhydro-Neu5Ac, 3'Sialyllactose (3'SL) or glucose). The bacteria were grown to late exponential phase for RNA extraction, the culture was performed in 14 ml tubes. Growth was determined spectrophotometrically by monitoring changes in optical density at […] compared to the same medium without bacterium (ΔOD595 nm) hourly for 10 hours.
The ability of the mutants to utilise sialic acids and sialoconjugates was assessed by supplementing YCFA with 11.1 mM of 2,7-anhydro-Neu5Ac, 3'SL, glucose or Neu5Ac in triplicate 200 μl cultures in 96-well microtiter plates. The OD595 nm was measured hourly for 10 h in an infinite F50 plate reader (Tecan, UK) housed within an anaerobic cabinet connected to Magellan V7.0 software.

## CC(=O)N[C@H]1[C@H]([C@H](O)[C@H](O)CO)OC(O)(C(=O)O)C[C@@H]1O (some centres unmarked) [Neu5Ac, N-acetylneuraminic acid]
[1]; excited at 297 nm, ligand at 10 μM, 20 μM or 70 μM
  change in the fluorescence emission spectra of RgSBP: did not lead to any change in the spectra
[1]; excited at 297 nm
  change in fluorescence emission at 350 nm upon sequential additions of ligand: no change in fluorescence is observed; also recorded: no change in intensity was observed
[2]
  Kd (ITC): No binding was observed; also recorded: does not bind

## CC(=O)N[C@H]1C2OC(C(=O)O)(C[C@@H]1O)O[C@@H]2[C@H](O)CO (some centres unmarked) [2,7-anhydro-Neu5Ac]
[1]; RgSBP excited at 297 nm, 10 μM or 20 μM ligand, ligand saturation
  quench in the fluorescence of the protein: ~16%
[1]; excited at 297 nm
  change in fluorescence emission at 350 nm upon sequential additions of ligand: a quench is observed; also recorded: large decrease in intensity
[1]; titration of 0.5 μM RgSBP, triplicate, hyperbolic fit
  Kd: 1350 nM
[2]
  Kd: 2420 ± 270 nM
[3]
  utilisation as a sole carbon source (growth): able to utilise

— patent publication US20210254138A1, “SIALIC ACID TRANSPORTER PROTEINS AS BIOMARKERS AND DRUG TARGETS” (Quadram Institute Bioscience, priority 2018, published 2021)
